Results on 1 compound are retold here after PMC3280264 (PLoS ONE, 2012).

The assay deals with T1, Human SGLT3 (Homo sapiens, UniProt Q9NY91).
T1 construct: expressed in transfected cells; host or cells: oocytes (from Nasco), injected with mRNA
T1 sequence (Q9NY91 1-659): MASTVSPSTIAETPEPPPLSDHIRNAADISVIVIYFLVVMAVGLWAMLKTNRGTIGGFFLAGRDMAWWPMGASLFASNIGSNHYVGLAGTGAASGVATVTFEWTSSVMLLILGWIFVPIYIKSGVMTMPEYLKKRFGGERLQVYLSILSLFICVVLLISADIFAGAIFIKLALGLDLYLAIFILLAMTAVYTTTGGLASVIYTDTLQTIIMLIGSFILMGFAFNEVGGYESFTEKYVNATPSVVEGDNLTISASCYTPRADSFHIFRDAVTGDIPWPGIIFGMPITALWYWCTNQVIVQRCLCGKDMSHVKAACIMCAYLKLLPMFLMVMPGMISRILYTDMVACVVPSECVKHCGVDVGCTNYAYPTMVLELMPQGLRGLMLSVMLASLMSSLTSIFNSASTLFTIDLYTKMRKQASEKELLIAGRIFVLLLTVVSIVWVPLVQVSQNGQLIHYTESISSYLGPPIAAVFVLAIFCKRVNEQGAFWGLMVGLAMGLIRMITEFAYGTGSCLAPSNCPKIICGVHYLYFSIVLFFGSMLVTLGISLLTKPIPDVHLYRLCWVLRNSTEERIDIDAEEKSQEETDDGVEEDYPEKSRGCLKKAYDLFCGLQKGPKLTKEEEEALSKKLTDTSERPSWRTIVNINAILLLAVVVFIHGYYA
The assay can be described thus: Two-electrode voltage clamp recording of oocytes expressing human SGLT3 (DNJ-induced currents). The format is cell-based. The note with it: 3 mM. The protocol: Oocytes were obtained from Nasco (Fort Atkinson, Wisconsin, USA). Stage V–VI oocytes were injected with 50 nl of either human SGLT3 mRNA (at 1 ng/nl) or distilled water (control) and incubated at 18°C in a calcium-free solution (92 mM NaCl, 2 mM KCl, 1 mM MgCl2, 5 mM HEPES, 0.05 mg/ml gentamicin at pH 7.5) for 4–6 days before recording. The extracellular recording solution contained 92 mM NaCl, 2 mM KCl, 1.8 mM CaCl2, 1 mM MgCl2, and 5 mM HEPES at pH 7.5. Injected oocytes were impaled with 2 microelectrodes filled with 3 M KCl (resistance of ∼0.5–3 MΩ) and voltage clamped to −120 mV, at which continuous recordings were made (filtered at 5 kHz and sampled at 625 Hz). To establish the baseline in the absence of agonist, oocytes were first perfused for 85 seconds with a control buffer (92 mM NaCl, 2 mM KCl, 1.8 mM CaCl2, 1 mM MgCl2, 5 mM HEPES at pH 7.5). […] Finally, phlorizin (3 mM) was applied in the presence of 50 µM DNJ for 160 seconds. All experiments were performed at 22°C. Currents in the presence of 50 µM DNJ were subtracted from leak currents (currents in control buffer alone) to obtain DNJ-induced currents (IDNJ). Effects of compounds were calculated as: % Inhibition = 100×(IDNJ−Icmpd)/IDNJ, where Icmpd is the DNJ-induced and leak-subtracted current in the presence of a compound or DMSO. Due to lack of effect at the highest dose tested, a dose-response relationship was not examined.

The inhibition is the change of the read-out against control, counted positive when it falls. A low value points to little suppression. Take `O=C(CCc1ccc(O)cc1)c1c(O)cc(O)cc1O[C@@H]1O[C@H](CO)[C@@H](O)[C@H](O)[C@H]1O` [phlorizin, reference compound]: testing at 3000 µM (SGLT3-injected oocytes, 50 µM DNJ, n = 14, P<0.05) gave an inhibition of 73.5 ± 4.2%. Also, the “effect on currents in sham-injected oocytes” value (sham (water)-injected oocytes, in the presence of 50 µM DNJ) is listed as “did not affect currents”.
